Source: patent US5654315A, “Quinuclidine compounds useful in treating diseases” (Imperial Chemical Industries PLC, priority 1991, dated 1997)

Key:
[1] = tested on: de novo hepatic cholesterol synthesis; assay: Acute rat cholesterol synthesis assay (de novo hepatic cholesterol synthesis from 14C-acetate); type: in vivo; conditions: female rats, oral gavage, ip or iv (route not given), 14C-acetate ip 1 hour after dosing
Procedure: (b) Acute rat cholesterol synthesis assay.
This is an acute in vivo test in the rat to measure de novo hepatic cholesterol synthesis from exogenously administered ^14 C-acetate.
Female rats (35-55 g) are housed in reverse lighting conditions (red light from 0200h-1400h) for a period of about 2 weeks prior to test. Animals are allowed free access to chow and drinking water throughout this period. At test, animals should weigh 125-150 g.
Test compounds may be administered by oral gavage, dissolved or suspended in 0.5% polysorbate, or by ip or iv dosing. Control animals receive vehicle alone. After 1 hour the rats are injected ip with 25 μCi [2-^14 C]-acetate (NEN DUPONT. specific activity, 45-60 mCi/mmol NEC-085H, or AMERSHAM specific activity, 50-60 mCi/mmol CFA 14) in a volume of 0.25 ml saline (100 μCi/ml). After a further hour, rats are terminally anaesthetised with halothane and a blood sample obtained from the abdominal vena cava.
1 ml of plasma is lyophilised and then saponified in 2 ml ethanolic KOH (1 part 33% KOH, 9 parts ethanol) at 75° C. for 2 hours. After addition of an equal quantity of water, non-saponifiable lipids are extracted with two 5 ml volumes of hexane. The hexane extracts are evaporated to dryness and the residues dissolved in ethanol to determine cholesterol specific radioactivity. EC50 values can be determined in the standard way.

[2] = target: T1, Squalene synthase (Rattus norvegicus, UniProt Q02769); assay: Inhibition of squalene synthase (formation of squalene from tritiated farnesyl pyrophosphate, rat liver microsomes); type: biochemical; conditions: rat liver microsomal protein; 20 μM 1-[3H]-farnesyl pyrophosphate; 15 minutes; 37° C.; read-out: IC50 (concentration which results in a 50% inhibition of squalene production)
T1 construct: rat liver microsomal protein; from tissue; host or cells: rat liver microsomes
T1 sequence (Q02769 1-416): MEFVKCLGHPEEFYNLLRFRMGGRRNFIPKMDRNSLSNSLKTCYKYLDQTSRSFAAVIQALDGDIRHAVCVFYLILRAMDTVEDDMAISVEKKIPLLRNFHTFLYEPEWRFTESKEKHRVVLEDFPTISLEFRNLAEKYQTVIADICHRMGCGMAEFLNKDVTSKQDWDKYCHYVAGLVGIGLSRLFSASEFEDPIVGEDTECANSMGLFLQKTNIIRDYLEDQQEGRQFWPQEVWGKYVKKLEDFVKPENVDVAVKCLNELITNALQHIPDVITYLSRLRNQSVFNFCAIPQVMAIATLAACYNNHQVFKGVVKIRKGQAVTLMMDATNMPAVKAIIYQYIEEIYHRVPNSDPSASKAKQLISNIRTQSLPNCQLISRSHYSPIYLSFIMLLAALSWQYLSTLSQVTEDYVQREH
Procedure: (a) Inhibition of Squalene synthase
In this test, the ability of a compound to prevent the formation of squalene from a radioactive substrate (tritiated farnesyl pyrophosphate) is assessed.
The test compound is incubated at a concentration of 25 micromolar in 200 μl of a buffered solution containing potassium phosphate (50 mM), MgCl2 (4.95 mM), KF (9.9 mM), NADPH (0.9 mM) and rat liver microsomal protein (20 μg). Rat liver microsomes are prepared by the method described in published European Patent Application No. 324,421 and stored in liquid nitrogen prior to assay. Assay vials are kept at 37° C. throughout the incubation.
The reaction is started with the addition of the substrate (1-[^3 H]-farnesyl pyrophosphate), final concentration 20 μM, and stopped after 15 minutes reaction time with the addition of 50 μl of 4% KOH. The reaction products are separated from unreacted substrate after application to a C-18 octadecyl 1ccBond column (Analytichem Int product No. 617101). An aqueous fraction is eluted with 250 μl of 0.1M KOH. Squalene is then eluted with 1.0 ml 10% ethyl acetate in hexane and radioactivity determined. The difference in radioactivity in the presence and absence of the test compound is used to determine the level of inhibition. […] The IC50 can then be determined from a plot of percentage inhibition against concentration of test compound.

## Oc1ccc(-c2ccc(OCC3(O)CN4CCC3CC4)cc2)cc1 (centres unmarked) [Example 17, 3-(4'-hydroxybiphenyl-4-yloxymethyl)quinuclidin-3-ol]
[1]
  ED50: 11 mg/kg

## c1ccc(-c2ccc(CNC3CN4CCC3CC4)cc2)cc1 (centres unmarked) [Example 5, 3-[(biphenyl-4-ylmethyl)amino]quinuclidine]
[2]
  IC50: 140 nM
